Assay results taken from ChEMBL document CHEMBL1154586, “Two new acetylenic derivatives and a new meroditerpenoid from a Taiwanese marine sponge Strongylophora durissima” (J Nat Prod, 2000).
Active and inactive are the calls of the source. The rule behind the calls is not given here.

Tested on: NUGC
Assay: Cytotoxicity against human NUGC cells at 10 uM
Type: functional, cell-based

For `C#CC(O)/C=C/CCCCCCCCCCCCC#CCCCCCCCCCCC#CC#CCO` (configuration not stated), the Activity was “Active”.

`C#CC(O)/C=C/CCCCCCCCC/C=C\CCCCCCCCC/C=C/C(O)C#C` (configuration not stated) was tested, and the Activity was “Active”.
